Reference: patent US20210000783A1, “USE OF EXTRACT OF VEGETATION WATERS FOR TREATING DAMAGE TO THE CARDIOVASCULAR SYSTEM” (FATTORIA LA VIALLA DI GIANNI, ANTONIO E BANDINO LO FRANCO - …, priority 2017, published 2021)

Tested on: zebrafish (Danio rerio) embryos
Experiment: Heart rate of zebrafish embryos with doxorubicin-induced cardiotoxicity
Format: in vivo
Conditions: doxorubicin alone 3 μg/ml
Description: The embryos were treated with the polyphenol concentrate of the present invention (sample A009), at the dilutions 1:100 and 1:500, alone or in association with Doxorubicin (3 μg/mL). A pre-treatment was performed with A009, followed by administration of Doxorubicin and A009+Doxorubicin co-treatment. NT=not-treated cells. ^∘∘∘=p<0.0001 with respect to not-treated embryos; ***=p<0.001 with respect to embryos treated with doxorubicin alone;
The embryos were treated with the polyphenol concentrate of the present invention (sample A009), at the dilutions 1:100 and 1:500, alone or in association with Doxorubicin (3 μg/mL). A pre-treatment was performed with A009, followed by administration of Doxorubicin and A009+Doxorubicin co-treatment. NT=not-treated cells. ^∘∘∘=p<0.0001 with respect to not-treated embryos; ***=p<0.001 with respect to embryos treated with doxorubicin alone.
To evaluate the cardioprotective effect of the polyphenol concentrate of the invention, the zebrafish was used in vivo as the animal model to study. In particular the experiments were performed on zebrafish (Danio rerio) embryos incubated for 24, 48 and 72 hours after fertilization. […]

Structure (SMILES): COc1cccc2c1C(=O)c1c(O)c3c(c(O)c1C2=O)C[C@@](O)(C(=O)CO)C[C@@H]3O[C@H]1C[C@H](N)[C@H](O)[C@H](C)O1 [doxorubicin]
- heart rate of zebrafish embryos (48 hours, FIG. 2): significantly reduces their heart rate
- heart rate of zebrafish embryos (72 hours, FIG. 3): significantly reduces their heart rate
